Measurements from the NIST ThermoML archive (doi:10.1021/je7000683).

Tests used:
[1] = activity coefficient (dimensionless); of the first substance listed, at infinite dilution; xn = mol fraction of the nth substance listed; conditions: Liquid, Chromatography, x1 = 0
[2] = molar heat capacity at constant pressure; conditions: 101.33 kPa, Small (less than 1 g) adiabatic calorimetry
[3] = Molar enthalpy of transition or fusion; conditions: Crystal; Adiabatic calorimetry
[4] = for vapor or sublimation pressure: Liquid, Calculated from knudsen effusion weight loss

O=C1CCCCCN1 [1-aza-2-cycloheptanone] + CCCCCC[n+]1ccn(C)c1.O=S(=O)([N-]S(=O)(=O)C(F)(F)F)C(F)(F)F
Conditions | activity coefficient
[1], 427.5 K | 0.49

ON=C1CCCCC1 [cyclohexanone oxime] + CCCCCC[n+]1ccn(C)c1.O=S(=O)([N-]S(=O)(=O)C(F)(F)F)C(F)(F)F
[1]
Conditions | activity coefficient
375.4 K | 2.41
386 K | 2.22
396.5 K | 2.03
407 K | 1.84
417.1 K | 1.67
417.6 K | 1.61
427.5 K | 1.51
438 K | 1.28

O=C1CCCCCN1 [1-aza-2-cycloheptanone]
Conditions | Triple point temperature [K] | molar heat capacity at constant pressure [J/K/mol]
[2], 316 K, Crystal | – | 168
[2], 319 K, Crystal | – | 169.4
[2], 322 K, Crystal | – | 171.1
[2], 323 K, Liquid | – | 232.3
[2], 325 K, Crystal | – | 173
[2], 326 K, Liquid | – | 233.8
[2], 328 K, Crystal | – | 175.1
[2], 329 K, Liquid | – | 235.3
[2], 331 K, Crystal | – | 177.5
[2], 332 K, Liquid | – | 236.7
[2], 334 K, Crystal | – | 180.1
[2], 335 K, Crystal | – | 181
[2], 335 K, Liquid | – | 238.2
[2], 338 K, Liquid | – | 239.7
[2], 341 K, Liquid | – | 241.2
[2], 344 K, Liquid | – | 242.7
[2], 347 K, Liquid | – | 244.2
[2], 350 K, Liquid | – | 245.7
[2], 353 K, Liquid | – | 247.1
[2], 356 K, Liquid | – | 248.6
[2], 359 K, Liquid | – | 250.1
[2], 362 K, Liquid | – | 251.6
[2], 365 K, Liquid | – | 253.1
[2], 368 K, Liquid | – | 254.6
[4], Crystal, Adiabatic calorimetry | 342.22 | –

Conditions | Molar enthalpy of transition or fusion [kcal/mol]
[3] | 3.862

[4]
Conditions | vapor or sublimation pressure [kPa]
315.3 K | 0.00286
320.3 K | 0.00442
331.9 K | 0.01144

CCCCCC[n+]1ccn(C)c1.O=S(=O)([N-]S(=O)(=O)C(F)(F)F)C(F)(F)F
Conditions | Normal melting temperature [°C]
[4], Crystal, visual observation | -1
